Columns and labels:
[1] = tested on: human ileum monolayer culture; test: Transepithelial electrical resistance (TEER) in human ileum organoid monolayer cultures; type: cell-based; conditions: for TEER compared with control: 3 μM, vs DMSO (FIG. 1D)
Protocol: Each human ileum monolayer culture well was washed twice with fresh SBM on the apical side on day 6 before compound dosing. All compound stocks were 10 mM dissolved in DMSO. Each compound stock was individually mixed with fresh SBM to reach final compound concentration and dosed only on the apical side of the monolayer (total volume 200 μl). DMSO at the equivalent concentration was used as the vehicle control. Duplicate wells were dosed for each compound. Transepithelial electrical resistance (TEER) was used as a quantitative technique to measure of tight junction permeability. TEER values were recorded using a volt/ohm meter (MERS00002, Millipore) before and after dosing for all wells. Each of the duplicate TEER values following treatment were corrected for the individual well baseline TEER. Baseline corrected TEER for each example compound was compared to the average of the DMSO wells and expressed as a percent TEER of vehicle control. Intracellular pH was measured in human ileum stem cells grown as monolayers on 96 well Transwell plates cells incubated with 10 μM of pH sensitive dye BCECF-AM (Life Technologies, cat# B1150) for 30 min at 37° C., 5% CO2 in Na-containing buffer (120 mM NaCl, 10 mM HEPES, 10 mM glucose, 5 mM KCl, 2 mM CaCl2, 1 mM MgCl2, pH 7.4). After 30 min the dye was aspirated and cells were washed twice with Na-containing buffer.
Fluorescent readings were acquired every 5 minutes for a period of 30 minutes on a Flexstation microplate reader at dual excitation wavelengths of 495 nm and 439 nm and emission wavelength of 538 nm (Molecular Devices). The fluorescent ratio for pH indication was calculated from ratio of the two excitation wavelengths (495/439 nm).

mice = test: Gastrointestinal transit (Evans Blue dye front) in opioid induced constipation model; type: in vivo; conditions: oral vehicle, subcutaneous loperamide (0.3 to 6 mg/kg); 30-minute period; vehicle/vehicle approximately 70%
Protocol: Gastrointestinal transit is measured in mice treated with the peripherally acting μ-opioid agonist loperamide to assess the ability of selected example compounds to restore gastrointestinal motility in a model of opioid induced constipation. Approximately eight-week old, female, CD 1 rats are purchased from Envigo (Livermore, Calif.), are housed 4 per cage and acclimated for at least 48 hours before study initiation. Animals are fed standard laboratory rodent chow Harlan Teklad Global 2018 (Maddison, Wis.). […] 30 minutes later, animals are euthanized by carbon dioxide inhalation, and the length from the pylorus to cecum (whole length of the small intestine) and the length from the pylorus to the Evans Blue dye front are measured and recorded. For an individual animal, the length travelled by the Evans Blue dye front is divided by the length of the whole small intestine, measured from the pylorus to the cecum, and multiplied by 100, to provide the distance of the small intestine travelled by the dye as a percentage. […] The effect of example compounds on GIT motility in the presence of loperamide is calculated as the ability to restore vehicle/vehicle transit distance from the vehicle/loperamide transit, expressed as a percentage.

[2] = tested on: human ileum stem cells grown as monolayers; test: Intracellular pH (BCECF-AM) in human ileum monolayers; type: cell-based; conditions: human ileum monolayer
NHE3 = target: T1, NHE3 (Homo sapiens, UniProt P48764); test: NHE3 activity in enterocytes by intracellular pH recovery following acid loading; type: cell-based
T1 construct: the increase in NHE3 expression after differentiation; endogenous in cells; host or cells: enterocytes (differentiated human ileum organoid monolayer cultures)
T1 sequence (P48764 26-834): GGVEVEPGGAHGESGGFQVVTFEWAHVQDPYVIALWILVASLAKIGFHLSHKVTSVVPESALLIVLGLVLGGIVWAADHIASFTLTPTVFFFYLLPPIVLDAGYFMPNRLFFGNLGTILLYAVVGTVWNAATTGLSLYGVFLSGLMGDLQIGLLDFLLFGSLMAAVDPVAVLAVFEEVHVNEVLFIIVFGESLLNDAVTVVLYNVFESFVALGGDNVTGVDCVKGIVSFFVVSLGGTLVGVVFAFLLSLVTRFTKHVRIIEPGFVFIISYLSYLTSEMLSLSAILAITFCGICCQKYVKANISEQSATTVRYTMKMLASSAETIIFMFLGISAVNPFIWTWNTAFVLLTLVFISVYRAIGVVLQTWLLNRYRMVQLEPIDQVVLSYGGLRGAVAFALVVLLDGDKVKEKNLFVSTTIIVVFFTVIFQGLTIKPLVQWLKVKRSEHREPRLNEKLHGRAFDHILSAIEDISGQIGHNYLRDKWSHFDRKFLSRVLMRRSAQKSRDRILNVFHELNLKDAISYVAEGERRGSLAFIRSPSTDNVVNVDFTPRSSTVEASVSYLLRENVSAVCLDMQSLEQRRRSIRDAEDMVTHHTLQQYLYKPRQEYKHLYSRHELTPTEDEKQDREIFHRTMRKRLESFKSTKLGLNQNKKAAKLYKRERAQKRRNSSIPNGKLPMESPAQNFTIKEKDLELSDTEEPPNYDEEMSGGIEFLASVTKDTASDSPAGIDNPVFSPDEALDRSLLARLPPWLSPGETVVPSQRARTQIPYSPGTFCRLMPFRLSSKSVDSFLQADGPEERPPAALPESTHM
Protocol: Known NHE3 inhibitor Tenapanor, as well as non NHE3 inhibitors nigericin, BAM15, FCCP, or DMSO control, were diluted into Na-containing buffer and added to the apical compartment of the Transwell. Fluorescent readings were acquired every 5 minutes for a period of 30 minutes on a Flexstation microplate reader at dual excitation wavelengths of 495 nm and 439 nm and emission wavelength of 538 nm (Molecular Devices). The fluorescent ratio for pH indication was calculated from ratio of the two excitation wavelengths (495/439 nm).

With CN1Cc2c(Cl)cc(Cl)cc2[C@H](c2cccc(S(=O)(=O)NCCOCCOCCNC(=O)NCCCCNC(=O)NCCOCCOCCNS(=O)(=O)c3cccc([C@@H]4CN(C)Cc5c(Cl)cc(Cl)cc54)c3)c2)C1 [tenapanor] the “TEER relative to control” value ([1]; apical dosing, vs DMSO (FIG. 1B)) was “increase in TEER relative to control”.

In the case of CN(C)C(=O)C(CCN1CCC(O)(c2ccc(Cl)cc2)CC1)(c1ccccc1)c1ccccc1 [loperamide], the “length of the small intestine travelled by Evans Blue dye front” value (mice) is reported as about 25%.

Fc1ccccc1Nc1nc2nonc2nc1Nc1ccccc1F [BAM15] was tested, and the “TEER compared with control” value [1] was “increased TEER compared with control”, the “intracellular pH compared with control” value ([2]; 3 μM, vs DMSO (FIG. 1C)) was “decrease intracellular pH” and the “inhibition of NHE3 activity in enterocytes” value (NHE3) was “neither nigericin, BAM15 nor FCCP inhibited NHE3 activity”.

In the case of CO[C@@H]1C[C@@H](C[C@H]2CC[C@H](C)[C@H]([C@@H](C)C(=O)O)O2)O[C@]2(O[C@](C)([C@H]3CC[C@@](C)([C@@H]4O[C@@H]([C@H]5O[C@@](O)(CO)[C@H](C)C[C@@H]5C)C[C@@H]4C)O3)C[C@H]2C)[C@@H]1C [nigericin], the “intracellular pH compared with control” value ([2]; apical dosing, vs DMSO (FIG. 1A)) is reported as “reduced intracellular pH compared with control” and the “inhibition of NHE3 activity in enterocytes” value (NHE3) is reported as “neither nigericin, BAM15 nor FCCP inhibited NHE3 activity”.

FCCP was tested, and the “TEER compared with control” value [1] was “increased TEER compared with control” and the “intracellular pH compared with control” value ([2]; 3 μM, vs DMSO (FIG. 1C)) was “decrease intracellular pH”.

— patent US11147884B2, “Inhibitors of NHE-mediated antiport” (Ardelyx, Inc., priority 2017, dated 2021)
